Experimental data taken from patent publication US20220016183A1, “EXOSOME AND VARIOUS USES THEREOF” (PROSTEMICS CO., LTD., priority 2018, published 2022).

Tested on: Dermal papilla cells, DPC
Test: Dermal papilla cell (DPC) proliferation, CCK-8
Format: cell-based
Conditions: 10 μM, 24 hours
Protocol: After dispensing a serum medium with 10,000 cells/well of papillary cells (Dermal papilla cells, DPC) in a 96-well microplate, the cells were incubated overnight at 37° C. in a CO2 incubator. […] After removing the treated material from each cell and dispensing the CCK-8 solution thereto, the cells were incubated in the CO2 incubator at 37° C. for 2 hours, and absorbance was measured at 450 nm.

SMILES: Nc1cc(N2CCCCC2)nc(N)[n+]1[O-] [M1, Minoxidil]
- DPC proliferation rate (%): 118.97%
